CN1CCN(c2c(F)cc3c(=O)c(C(=O)O)cn4c3c2OCN4C)CC1
solubility (mole fraction)
Conditions | 283.15 K | 288.15 K | 293.15 K | 298.15 K | 303.15 K | 308.15 K | 313.15 K | 318.15 K | 323.15 K | 328.15 K
in 1,4-dioxane | – | 0.000114 | 0.000132 | 0.000153 | 0.000188 | 0.00023 | 0.00028 | 0.000348 | 0.000427 | 0.000512
in THF | – | 0.000432 | 0.000508 | 0.000591 | 0.00068 | 0.000777 | 0.000887 | 0.001 | 0.00113 | 0.00125
in acetone | 0.000219 | 0.000266 | 0.000316 | 0.000367 | 0.000425 | 0.000488 | 0.00057 | 0.000678 | 0.000796 | –
in acetonitrile | 0.000122 | 0.000147 | 0.000172 | 0.000213 | 0.00025 | 0.000298 | 0.000345 | 0.000422 | 0.000509 | –
in ethanol | 6.66e-05 | 7.84e-05 | 9.47e-05 | 0.000117 | 0.000144 | 0.000175 | 0.000217 | 0.000264 | 0.000326 | –
in ethyl acetate | 0.000154 | 0.000172 | 0.000197 | 0.000226 | 0.000255 | 0.000288 | 0.000326 | 0.000378 | 0.000432 | –
in isopropanol | 5.13e-05 | 6.16e-05 | 7.5e-05 | 9.22e-05 | 0.000107 | 0.00013 | 0.000164 | 0.000204 | 0.000259 | –
in methanol | 0.000127 | 0.000147 | 0.000173 | 0.000204 | 0.000249 | 0.000295 | 0.000354 | 0.000435 | 0.000521 | –
in n-butanol | 8.77e-05 | 0.0001 | 0.000116 | 0.00014 | 0.000169 | 0.000204 | 0.000254 | 0.000316 | 0.000408 | –
in n-propanol | 8.29e-05 | 9.58e-05 | 0.000114 | 0.000136 | 0.000164 | 0.000202 | 0.000253 | 0.000315 | 0.000391 | –
in tert-amyl alcohol | 7.86e-05 | 9.12e-05 | 0.000107 | 0.000122 | 0.00014 | 0.00017 | 0.000202 | 0.00024 | 0.00029 | –
in toluene | 4.91e-05 | 6.13e-05 | 7.24e-05 | 8.74e-05 | 0.000102 | 0.000117 | 0.000135 | 0.000155 | 0.00018 | –

From BigSolDB 2.1
